Laboratory results: publication PMC6152655, “Determination and Pharmacokinetic Study of Three Diterpenes in Rat Plasma by UHPLC-ESI-MS/MS after Oral Administration of Rosmarinus officinalis L. Extract” (Molecules : A Journal of Synthetic Chemistry and Natural …, 2017)
Read-outs that look alike come from different tables or passages of the source.

What was measured:
[1] = Pharmacokinetic study in rats after oral administration of R. officinalis extract (UHPLC-ESI-MS/MS of plasma); format: in vivo, Sprague-Dawley (SD) rats; design: Cmax: unit: ng/mL; details: for Cmax / AUC(0-inf) / AUC(0-t) / Tmax / half-life: rat plasma, n = 6; for concentration at 0.5 h: plasma sample obtained at 0.5 h from a rat after oral administration of rosemary extract (Figure 2C)
Experimental: The validated method was successfully applied to pharmacokinetic studies of three diterpenes components after oral administration of rosemary at three different doses (0.25, 0.82, 2.45 g/kg). […] Therefore, we set low, medium and high doses in this study.
The main pharmacokinetic parameters of the analytes were calculated with DAS 2.0 (Shanghai, China) by non-compartmental analysis.
For the preparation of the extract, 100 g of dried leaves of R. officinalis were extracted under reflux with 1 L ethanol-water (80:20, v/v) for three times, 1 h for each time, and then filtrated. The combined filtrate was evaporated to dryness, and the residue was dissolved in water to get a concentration equivalent to 0.1 g/mL of the R. officinalis extract.
Male Sprague-Dawley (SD) rats (body weight 220 ± 50 g) were purchased and adapted under 65% RH, 23–27°C. […] Eighteen rats were randomly divided into low (0.24 g/kg), medium (0.82 g/kg), high (2.45 g/kg) dose groups. The SD rats were fasted for 12 h before experiment, had free access to water even during the experiment. The blood (0.25 mL) was collected from the orbital venous plexus at 0.08, 0.25, 0.50, 1, 1.5, 2, 3, 4, 6, 8, 12 and 24 h after oral administration of R. officinalis extract. The plasma was immediately acquired by centrifugation at 4 °C and stored frozen at −20 °C until analysis.
Before the experiment, the plasma samples stored in −20 °C were thawed naturally at room temperature. Using the optimized method, 50 μL of I.S. (2120 ng/mL), 100 μL of methanol and 100 μL of 1 mol/L HCl were added to 100 μL of plasma sample followed with vortex-mixed for 30 s. The mixed sample was extracted with 3 mL of ethyl acetate by being vortex-mixed for 1 min. The upper organic layer was removed and evaporated to dryness under a stream of nitrogen at 40 °C after centrifuging at 3800 rpm for 5 min. The residue was reconstituted with 100 μL of acetonitrile-water (40:60, v/v), and then vortex-mixed for 2 min and filtered by a 0.22 μm membrane. 10 μL of the subsequent filtrate were injected into the UHPLC-ESI-MS/MS system [20].
The maximum plasma concentration (Cmax) and the time of maximum plasma concentration (tmax) were observed directly from the measured data. The elimination rate constant (Ke) was calculated by linear regression of the terminal points in a semi-log plot of the plasma concentration against time. The elimination half-life (t1/2) was calculated using the formula t1/2 = 0.693/Ke. The area under plasma concentration-time curve (AUC0→t) to the last measurable plasma concentration (Ct) was estimated by using the linear trapezoidal rule. The area under the plasma concentration-time curve to time infinity (AUC0→∞) was calculated as AUC0→∞ = AUC0→t + Ct/Ke. Pharmacokinetic parameters of the analytes were calculated with DAS 2.0 (Shanghai, China) by non-compartmental analysis.

[2] = Stability of the three diterpenes in rat plasma under different storage conditions; format: in vitro ADME; details: n = 6; for Stability (% RE) Post-Preparative: extracted samples, 12 h at 4 °C; for Stability (% RE) Long-Term / Stability (% RE) Short-Term / Stability (% RE) Freeze-Thaw: rat plasma; for Stability (% RE) Long-Term: 2 weeks at −20 °C; for Stability (% RE) Short-Term: room temperature 4 h; for Stability (% RE) Freeze-Thaw: three freeze (−20 °C)-thaw cycles
Experimental: The stability of the three diterpenes was assessed under various conditions (Table 4). […] Moreover, all the investigated compounds were stable for 2 weeks when kept frozen at −20 °C. The stability including cycles of freeze-thaw stability (three freeze at −20 °C and thaw cycles), room temperature stability (storage for 4 h at ambient temperature), long-term stability (storage for 2 weeks at −20 °C), post-preparation stability (storage for 12 h after sample preparation at 4 °C) were tested at LQC, MQC, HQC levels with six replicates at each level. The results were compared with those for freshly prepared QC samples and the percentage concentration deviation was calculated. The accuracy should be within ± 15% in freshly prepared samples. All the testing QC samples of stability were determined by using the calibration curve of freshly prepared standard samples.

[3] = design: method as in PMID 19309757; details: rat, monomeric compound (purity ≥ 98%) instead of extract; cited from earlier work
[4] = male, Sprague-Dawley, rat, plasma, po, 0.24 g/kg, oral R. officinalis extract 0.24 g/kg (low dose), read-out: Cmax
[5] = male, Sprague-Dawley, rat, plasma, po, 0.82 g/kg, oral R. officinalis extract 0.82 g/kg (medium dose), read-out: Cmax
[6] = male, Sprague-Dawley, rat, plasma, po, 2.45 g/kg, oral R. officinalis extract 2.45 g/kg (high dose), read-out: Cmax
[7] = male, Sprague-Dawley, oral R. officinalis extract 0.24 g/kg (low dose)
[8] = male, Sprague-Dawley, oral R. officinalis extract 0.82 g/kg (medium dose)
[9] = male, Sprague-Dawley, oral R. officinalis extract 2.45 g/kg (high dose)
[10] = high QC (25,800/3488/4080 ng/mL)
[11] = low QC (21.50/2.910/3.400 ng/mL)
[12] = medium QC (1075/145.3/170.0 ng/mL)
[13] = low QC (21.50/2.910/3.400 ng/mL carnosic acid/carnosol/rosmanol)

Row | Cmax [1, 4] | Cmax [1, 5] | Cmax [1, 6] | concentration at 0.5 h ([1]; male, Sprague-Dawley) | AUC(0-inf) [1, 7] | AUC(0-t) [1, 7] | Tmax [1, 7] | half-life [1, 7] | AUC(0-inf) [1, 8] | AUC(0-t) [1, 8] | Tmax [1, 8] | half-life [1, 8] | AUC(0-inf) [1, 9] | AUC(0-t) [1, 9] | Tmax [1, 9] | half-life [1, 9] | Stability (% RE) Post-Preparative [2, 10] | Stability (% RE) Post-Preparative [2, 11] | Stability (% RE) Post-Preparative [2, 12] | Stability (% RE) Long-Term [2, 10] | SMILES | other results
1 | 77.2 ± 10.5 ng/mL | 188 ± 75.9 ng/mL | 633 ± 118 ng/mL | 568 ng/mL | 552 ± 130 ng·h/mL | 460 ± 54.9 ng·h/mL | 0.25 h | 8.88 ± 3.52 h | 826 ± 138 ng·h/mL | 678 ± 56.9 ng·h/mL | 0.2 ± 0.18 h | 9.75 ± 2.44 h | 7980 ± 1650 ng·h/mL | 5370 ± 927 ng·h/mL | 0.55 ± 0.27 h | 15.4 ± 3.54 h | 4.60 % RE | −0.30 % RE | −7.65 % RE | 9.17 % RE | CC(C)c1cc2c(c(O)c1O)[C@@]13CCCC(C)(C)[C@@H]1[C@H](OC3=O)[C@H]2O [Rosmanol] | Cmax ([1]; oral R. officinalis extract 2.45 g/kg (high dose)): 633.41 ± 118.52 ng/mL; Stability (% RE) Long-Term [2, 11]: 7.17 % RE; Stability (% RE) Long-Term [2, 12]: −8.56 % RE; Stability (% RE) Short-Term [2, 10]: 0.65 % RE; Stability (% RE) Short-Term [2, 11]: 5.01 % RE; Stability (% RE) Short-Term [2, 12]: −8.16 % RE; Stability (% RE) Freeze-Thaw [2, 10]: −0.07 % RE; Stability (% RE) Freeze-Thaw [2, 13]: 4.65 % RE; Stability (% RE) Freeze-Thaw [2, 12]: −7.12 % RE
2 | 1210 ± 344 ng/mL | 3960 ± 516 ng/mL | 27500 ng/mL | 27900 ng/mL | 14900 ng·h/mL | 9140 ± 1500 ng·h/mL | 0.3 ± 0.11 h | 8.02 ± 2.08 h | 40000 ng·h/mL | 28500 ng·h/mL | 0.3 ± 0.11 h | 12.8 ± 5.14 h | 181000 ng·h/mL | 146000 ng·h/mL | 0.5 ± 0.31 h | 12.8 ± 1.23 h | 14.83 % RE | 13.89 % RE | 14.10 % RE | 14.84 % RE | CC(C)c1cc2c(c(O)c1O)[C@@]1(C(=O)O)CCCC(C)(C)[C@@H]1CC2 [Carnosic acid] | Stability (% RE) Long-Term [2, 11]: 13.78 % RE; Stability (% RE) Long-Term [2, 12]: 14.30 % RE; Stability (% RE) Short-Term [2, 10]: 14.84 % RE; Stability (% RE) Short-Term [2, 11]: 10.21 % RE; Stability (% RE) Short-Term [2, 12]: 14.80 % RE; Stability (% RE) Freeze-Thaw [2, 10]: 14.40 % RE; Stability (% RE) Freeze-Thaw [2, 13]: 14.04 % RE; Stability (% RE) Freeze-Thaw [2, 12]: 14.82 % RE; Tmax [3]: 2.17 h
3 | 217 ± 53.1 ng/mL | 413 ± 42.6 ng/mL | 1480 ± 266 ng/mL | 1830 ng/mL | 1820 ± 327 ng·h/mL | 1470 ± 190 ng·h/mL | 0.4 ± 0.13 h | 12.3 ± 2.36 h | 7360 ± 2740 ng·h/mL | 3190 ± 316 ng·h/mL | 0.27 ± 0.15 h | 13.9 ± 6.95 h | 17400 ng·h/mL | 14000 ng·h/mL | 0.7 ± 0.45 h | 12.8 ± 3.15 h | 2.09 % RE | 2.32 % RE | 0.66 % RE | −0.48 % RE | CC(C)c1cc2c(c(O)c1O)[C@@]13CCCC(C)(C)[C@@H]1C[C@@H]2OC3=O [Carnosol] | Cmax ([1]; oral R. officinalis extract 0.24 g/kg (low dose)): 216.56 ± 53.09 ng/mL; Cmax ([1]; oral R. officinalis extract 0.82 g/kg (medium dose)): 413.34 ± 42.59 ng/mL; Stability (% RE) Long-Term [2, 11]: 3.10 % RE; Stability (% RE) Long-Term [2, 12]: 14.49 % RE; Stability (% RE) Short-Term [2, 10]: −0.79 % RE; Stability (% RE) Short-Term [2, 11]: 8.07 % RE; Stability (% RE) Short-Term [2, 12]: −8.67 % RE; Stability (% RE) Freeze-Thaw [2, 10]: 0.30 % RE; Stability (% RE) Freeze-Thaw [2, 13]: 5.39 % RE; Stability (% RE) Freeze-Thaw [2, 12]: 8.40 % RE
